# Experimental data: patent US7163800B2, “Methods of screening compositions for G protein-coupled receptor desensitization inhibitory activity” (Molecular Devices Corporation, priority 2000, dated 2007)
# Where two headings read alike, the source gives them in different places.
# Columns and labels:
# [1] = molecular target: human vasopressin V2 receptor (V2R) (Homo sapiens, UniProt P30518); assay: arrestin-GFP localization (Fgrains) assay in U20S-V2R/ArrGFP cells, arginine vasopressin stimulated; format: cell-based; conditions: 100 nM arginine vasopressin
# Experimental: The assay was carried out using two different “double stable” human osteosarcoma cell (U20S) lines. […] The other cell line (U20S-V2R/ArrGFP) stably expressed V2R and the same arrestin-GFP conjugate.
# The two cell lines (U20S-β2AR/ArrGFP and U20S-V2R/ArrGFP) were separately plated at 7000 cells/well on 384 well glass bottom plates. Two plates of U20S-β2AR/ArrGFP cells were prepared and two plates of U20S-V2R/ArrGFP cells were prepared.
# Growth media was replaced with serum free media (i.e., Eagle's minimum essential medium (EMEM) buffered with 10 mM HEPES (N-2-Hydroxyethylpiperazine-N′-2-ethanesulfonic acid)) 24 hours after plating of the cells.
# Each test compound was solvated using 100% dimethyl sulfoxide (DMSO). Multiple solutions of each compound were prepared at varying concentrations for testing in separate wells of each plate. If needed, the solutions were sonicated and heated to increase solubility. After preparation of the compound solutions, they were shielded from light.
# Each of the solutions of varying concentrations of the fifteen compounds was added to a well on each of the four plates. The β2AR RT and V2R RT plates were incubated for 30 minutes at room temperature and atmospheric CO2.
# Agonist was then added to each well. […] The β2AR RT and V2R RT plates were incubated for 30 minutes at room temperature and atmospheric CO2.
# Each assay was then terminated using 1% paraformaldehyde containing 1 μM DRAQ5 DNA probe to fix the cells. The cells were analyzed using a pre-production model (alpha unit) of the IN Cell Analyzer 3000 (Amersham Biosciences), which is a line scanning, confocal imaging system. The IN Cell Analyzer 3000 was used to quantitate the localization of the arrestin-GFP conjugate for the cells in each well using the Amersham Biosciences granularity analysis GRNO algorithm. This algorithm finds the nucleus of cells and then dilates out a specified distance in which fluorescent spots or “grains” of arrestin-GFP localization are identified based on size and fluorescent intensity. The average of the fluorescent intensity of the identified grains per cell in an acquired image (i.e., Fgrains) was determined for each well on the plates.
# The graphs for each compound as well as for the propanolol control are illustrated in FIGS. 7–22.
# The curve-fitting program allowed the minimum and maximum values as well as the slope and EC50 values to vary rather than fixing the values to specified or collected values.
# [2] = molecular target: HA-tagged human β2-adrenergic receptor (β2AR) (Homo sapiens, UniProt P07550); assay: arrestin-GFP localization (Fgrains) assay in U20S-β2AR/ArrGFP cells, isoproterenol stimulated
# Experimental: Each of the fifteen compounds was separately screened for GPCR desensitization inhibitory activity against HA-tagged human β2-adrenergic receptor (β2AR) and against human vasopressin V2 receptor (V2R). In addition, the effects of temperature and carbon dioxide (CO2) were evaluated with respect to each compound.
# β2AR and V2R = conditions: inhibitory activity shown for both β2AR and V2R
# Source text: Each of the fifteen compounds was separately screened for GPCR desensitization inhibitory activity against HA-tagged human β2-adrenergic receptor (β2AR) and against human vasopressin V2 receptor (V2R).
# As indicated by the Fgrains values for the cells in the Basal and Stimulated control wells, the Fgrains value determined by the IN Cell Analyzer 3000 in this example was functionally a measure of the average extent of desensitization in the cells in each well.
# [3] = V2R CO2 plate: 37° C., 5% CO2/95% O2
# [4] = V2R RT plate: room temperature, atmospheric CO2
# [5] = B2AR CO2 plate: 37° C., 5% CO2/95% O2, 100 nM isoproterenol
# [6] = B2AR RT plate: room temperature, atmospheric CO2, 100 nM isoproterenol
Compound,"Max Rsp (change between fitted maximum and fitted minimum Fgrains) [1, 3]","Min (fitted minimum Fgrains) [1, 3]","slope of concentration-response curve [1, 3]","Max Rsp (change between fitted maximum and fitted minimum Fgrains) [1, 4]","Min (fitted minimum Fgrains) [1, 4]","slope of concentration-response curve [1, 4]","Max Rsp (change between fitted maximum and fitted minimum Fgrains) [2, 5]","Min (fitted minimum Fgrains) [2, 5]","slope of concentration-response curve [2, 5]","Max Rsp (change between fitted maximum and fitted minimum Fgrains) [2, 6]","Min (fitted minimum Fgrains) [2, 6]","slope of concentration-response curve [2, 6]",indication of non-receptor-specific GPCR desensitization inhibitory activity (β2AR and V2R),"EC50 [1, 3] [µM]","pEC50 [1, 3]","EC50 [1, 4] [µM]","pEC50 [1, 4]","EC50 [2, 5] [µM]","pEC50 [2, 5]","EC50 [2, 6] [µM]",other results
"C[n+]1cc2c3c(ccc2c2ccc4cc5c(cc4c21)OCO5)OCO3 [Sanguinarine Chloride (S5890), Sanguinarine Chloride]",546,27,2.1,533,27,2.0,312,108,3.3,340,61,1.3,non-receptor-specific GPCR desensitization inhibitory activity,–,–,–,–,–,–,–,"EC50 ([2]; EC50, B2AR CO2 plate: 37° C., 5% CO2/95% O2, 100 nM isoproterenol): 7 µM; EC50 ([2]; EC50, B2AR RT plate: room temperature, atmospheric CO2, 100 nM isoproterenol): 7.7 µM"
NCCCn1cc(C2=C(c3c[nH]c4ccccc34)C(=O)NC2=O)c2ccccc21 [Bisindolylmaleimide III],298,291,1.9,361,225,0.9,194,243,1.8,232,212,1.2,non-receptor-specific GPCR desensitization inhibitory activity,6,5.2,19.3,4.7,11.1,5.0,22.4,"pEC50 [2, 6]: 4.7"
Bisindolylmaleimide VI,499,94,0.8,696,−118,1.2,270,170,2.4,210,213,4.4,non-receptor-specific GPCR desensitization inhibitory activity,24.6,4.6,18.3,4.7,12.7,4.9,9,"pEC50 [2, 6]: 5.0"
Cn1cc(C2=C(c3cn(CCCN)c4ccccc34)C(=O)NC2=O)c2ccccc21 [RO-31-7549],357,240,1.0,320,250,1.5,243,193,1.2,423,4,0.8,non-receptor-specific GPCR desensitization inhibitory activity,2.7,5.6,3.3,5.5,9.4,5.0,31.1,"pEC50 [2, 6]: 4.5"
CN1CCCC1CCn1cc(C2=C(c3c[nH]c4ccccc34)C(=O)NC2=O)c2ccccc21 (stereo not drawn) [Bisindolylmaleimide II],420,159,1.2,576,−7,1.1,502,−70,1.7,924,−508,1.7,non-receptor-specific GPCR desensitization inhibitory activity,29.2,4.5,35,4.5,62.1,4.2,87.3,"pEC50 [2, 6]: 4.1"
"CCC(=O)n1nc2c(c1C(C)(C)C)C(=O)c1ccccc1-2 [3-tert-Butyl-2-propionyl-2H-indeno[1,2-c]pyrazol-4-one]",–,–,–,–,–,–,129,307,3.2,–,–,–,–,–,–,–,–,–,–,–,EC50 [2]: 46.9 µM
O=C1NC(=O)C(c2cn(CCCN3CCNCC3)c3ccccc23)=C1c1c[nH]c2ccccc12 [Bisindolylmaleimide VII],336,250,2.4,717,−130,1.1,278,167,2.3,281,148,2.2,non-receptor-specific GPCR desensitization inhibitory activity,9.3,5.0,36.6,4.4,21.2,4.7,24.9,"pEC50 [2, 6]: 4.6"
O=C1NC(=O)C(c2c[nH]c3ccccc23)=C1c1c[nH]c2ccccc12 [Bisindolylmaleimide IV],277,292,6.5,–,–,–,–,–,–,–,–,–,–,69.2,4.2,–,–,–,–,–,–
